Measured values reported in ChEMBL document CHEMBL1201862, “PubChem BioAssay data set” (2004).
Structures can show the parent of a compound that is named as a salt. Active and inactive are the calls of the source.

Columns and labels:
Protein Wnt-3a = Protein Wnt-3a (Mus musculus, UniProt P27467); test: antagonism of Wnt3a pathway luciferase reporter – Wnt-LIGHT cells, luminescence, selectivity assay for Gli-SUFU antagonist project, dose response (AID 651570); type: functional; settings: read-out: IC50_Mean;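 note: Wnt-LIGHT reporter cells stimulated with conditioned medium from Wnt3a-producing cells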
Sequence of Protein Wnt-3a (P27467 whole entry): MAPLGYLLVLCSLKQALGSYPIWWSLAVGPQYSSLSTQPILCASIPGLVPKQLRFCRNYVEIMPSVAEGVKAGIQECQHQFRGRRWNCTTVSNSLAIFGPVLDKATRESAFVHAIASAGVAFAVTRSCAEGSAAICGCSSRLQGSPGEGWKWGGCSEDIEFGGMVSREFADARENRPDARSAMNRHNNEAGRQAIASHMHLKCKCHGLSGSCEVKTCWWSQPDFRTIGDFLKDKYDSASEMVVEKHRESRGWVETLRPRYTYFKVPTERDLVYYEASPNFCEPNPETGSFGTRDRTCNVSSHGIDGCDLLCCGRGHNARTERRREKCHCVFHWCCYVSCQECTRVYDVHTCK

cells [1] = type: functional, cell-based
[2] = viability of HCT116 lacking mutant beta-catenin – cell-based, human colon tumor, dose response (AID 1045); type: functional;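 note: HCT116 colon tumor cells with beta catenin knocked out; cells exposed to compound for 60 hours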
[3] = molecular target: T1, Trace amine-associated receptor 1 (Homo sapiens, UniProt Q96RJ0); test: Fluorescence-based cell-based high throughput dose response assay to identify agonists of the human trace amine associated receptor 1 (TAAR1).; type: functional
T1 sequence (Q96RJ0 whole entry): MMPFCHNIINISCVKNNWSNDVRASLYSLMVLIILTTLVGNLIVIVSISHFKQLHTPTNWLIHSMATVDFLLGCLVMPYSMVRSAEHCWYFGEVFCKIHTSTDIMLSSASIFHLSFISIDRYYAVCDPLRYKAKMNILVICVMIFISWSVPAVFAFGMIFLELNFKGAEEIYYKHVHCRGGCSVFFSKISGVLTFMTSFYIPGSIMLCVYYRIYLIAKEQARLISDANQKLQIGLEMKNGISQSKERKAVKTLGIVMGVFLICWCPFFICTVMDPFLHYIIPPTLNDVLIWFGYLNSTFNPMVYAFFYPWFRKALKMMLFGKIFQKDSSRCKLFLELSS

HEK293 = test: EBV LMP1 TES2 canonical NF-kB signalling blockers – cell-based, HEK293, luciferase, cherry-pick, dose response (AID 588343); type: functional; settings: Homo sapiens
cells [4] = type: functional, cell-based; remark: listed apart in the source
[5] = molecular target: T1, Trace amine-associated receptor 1; test: Counterscreen for agonists of the human trace amine associated receptor 1 (hTAAR1): Fluorescence-based cell-based high throughput dose response assay to identify hTAAR1 agonist that also desensitize TAAR1 receptor response.; type: functional
[6] = viability of PTEN-deleted HCT116 cells – cell-based, HCT116 PTEN knockout, dose response (AID 1047); type: functional;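 note: HCT116 colon tumor cells with PTEN knocked out; cells exposed to compound for 60 hours before readout; potency for loss of cell viability measured by luminescence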
Beta-galactosidase = Beta-galactosidase (Escherichia coli, UniProt Q8VNN2); test: Dose response counterscreen for EBI2 assay utilizing the enzyme, b-galactosidase.; type: functional
Sequence of Beta-galactosidase (Q8VNN2 whole entry): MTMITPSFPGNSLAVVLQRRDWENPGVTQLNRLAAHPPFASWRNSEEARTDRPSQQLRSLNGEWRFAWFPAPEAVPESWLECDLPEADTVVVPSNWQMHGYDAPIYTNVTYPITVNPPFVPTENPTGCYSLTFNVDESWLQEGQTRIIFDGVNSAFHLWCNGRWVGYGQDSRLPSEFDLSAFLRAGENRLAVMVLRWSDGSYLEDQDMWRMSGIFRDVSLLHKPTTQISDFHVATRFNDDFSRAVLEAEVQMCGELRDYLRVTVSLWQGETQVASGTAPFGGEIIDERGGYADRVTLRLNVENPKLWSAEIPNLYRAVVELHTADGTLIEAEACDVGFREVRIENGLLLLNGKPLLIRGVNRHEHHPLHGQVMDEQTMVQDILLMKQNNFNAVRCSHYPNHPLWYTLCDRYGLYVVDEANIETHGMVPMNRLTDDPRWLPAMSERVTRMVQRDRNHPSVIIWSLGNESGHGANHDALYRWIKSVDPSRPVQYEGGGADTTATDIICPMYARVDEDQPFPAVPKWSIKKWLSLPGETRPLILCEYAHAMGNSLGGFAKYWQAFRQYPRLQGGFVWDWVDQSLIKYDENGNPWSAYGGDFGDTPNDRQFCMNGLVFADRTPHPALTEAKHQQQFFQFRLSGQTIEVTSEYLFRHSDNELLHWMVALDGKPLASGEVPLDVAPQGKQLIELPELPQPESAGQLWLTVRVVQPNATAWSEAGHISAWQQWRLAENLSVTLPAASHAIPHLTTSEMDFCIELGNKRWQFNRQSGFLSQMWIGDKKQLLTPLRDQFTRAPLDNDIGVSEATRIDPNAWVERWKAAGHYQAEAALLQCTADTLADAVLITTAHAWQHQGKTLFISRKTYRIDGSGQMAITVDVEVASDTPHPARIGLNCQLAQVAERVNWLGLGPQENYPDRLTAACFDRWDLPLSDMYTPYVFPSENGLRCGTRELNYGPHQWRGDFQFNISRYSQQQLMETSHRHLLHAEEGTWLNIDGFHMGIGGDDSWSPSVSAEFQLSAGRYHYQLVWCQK

[7] = non-specific 3'UTR reporter inhibition in Clone20-Shn3RL – cell-based, Renilla luciferase, cherry-picked, counter-screen for Shn3 inhibitor project, dose response (AID 624133); type: functional
[8] = molecular target: FAD-linked sulfhydryl oxidase ALR (Homo sapiens, UniProt P55789); test: ALR-catalysed DTT oxidation blockers – biochemical, H2O2 detection, luminescence, cherry-pick, dose response (AID 493248)
Sequence of FAD-linked sulfhydryl oxidase ALR (P55789 whole entry): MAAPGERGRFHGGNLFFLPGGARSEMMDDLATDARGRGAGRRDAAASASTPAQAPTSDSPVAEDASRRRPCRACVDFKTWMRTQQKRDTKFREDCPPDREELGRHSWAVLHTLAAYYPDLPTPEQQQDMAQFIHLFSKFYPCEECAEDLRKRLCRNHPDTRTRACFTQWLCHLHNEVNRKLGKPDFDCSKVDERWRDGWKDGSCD

[9] = molecular target: T2, Calpain-2 catalytic subunit (Sus scrofa, UniProt P43367); test: m-calpain protease blockers, concentration series – biochemical, fluorogenic peptide substrate, dose response (AID 1420); type: functional
T2 sequence (P43367 whole entry): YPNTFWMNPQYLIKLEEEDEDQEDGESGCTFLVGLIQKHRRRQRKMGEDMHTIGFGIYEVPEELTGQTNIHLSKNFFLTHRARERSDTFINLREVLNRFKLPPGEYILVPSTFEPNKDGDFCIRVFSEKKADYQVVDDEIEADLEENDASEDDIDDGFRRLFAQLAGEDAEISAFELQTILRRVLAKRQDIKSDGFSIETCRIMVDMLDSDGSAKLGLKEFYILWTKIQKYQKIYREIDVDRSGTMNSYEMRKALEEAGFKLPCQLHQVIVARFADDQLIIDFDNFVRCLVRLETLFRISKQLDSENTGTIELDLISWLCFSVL

Large T antigen = Large T antigen (Simian virus 40, UniProt P03070); type: functional, Betapolyomavirus macacae;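 note: Confirmatory-stage PubChem screen for compounds that inhibit SV40 T antigen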
Sequence of Large T antigen (P03070 whole entry): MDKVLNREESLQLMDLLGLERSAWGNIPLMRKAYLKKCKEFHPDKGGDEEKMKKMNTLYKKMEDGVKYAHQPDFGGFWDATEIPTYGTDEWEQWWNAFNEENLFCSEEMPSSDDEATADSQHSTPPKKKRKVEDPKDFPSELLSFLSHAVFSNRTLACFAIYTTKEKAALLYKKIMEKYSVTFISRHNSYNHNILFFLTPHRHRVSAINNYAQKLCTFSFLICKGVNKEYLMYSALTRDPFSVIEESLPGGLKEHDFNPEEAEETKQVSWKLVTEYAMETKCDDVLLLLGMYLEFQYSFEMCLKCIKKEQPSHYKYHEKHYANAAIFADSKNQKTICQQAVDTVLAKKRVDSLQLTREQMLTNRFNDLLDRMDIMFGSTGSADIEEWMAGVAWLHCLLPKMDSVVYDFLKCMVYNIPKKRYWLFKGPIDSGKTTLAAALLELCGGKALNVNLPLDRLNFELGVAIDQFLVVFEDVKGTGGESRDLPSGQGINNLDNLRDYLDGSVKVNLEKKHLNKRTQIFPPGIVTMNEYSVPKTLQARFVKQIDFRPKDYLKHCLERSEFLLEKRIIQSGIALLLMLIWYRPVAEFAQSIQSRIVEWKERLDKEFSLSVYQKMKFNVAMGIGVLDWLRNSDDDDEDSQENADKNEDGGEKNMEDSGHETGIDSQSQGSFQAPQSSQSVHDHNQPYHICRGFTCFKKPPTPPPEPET

[10] = reduction of Shn3 3'UTR-driven luciferase in osteoblasts – cell-based, Clone20 osteoblasts, firefly luciferase, cherry-picked, dose response (AID 624132); type: functional;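 note: firefly luciferase luminescence from reporter carrying the Shn3 3'UTR in osteoblasts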
[11] = loss of viability in HepG2 cells – cell-based, CellTiter-Glo, cherry-picked, cytotoxicity control for Shn3 inhibitor project, dose response (AID 624134); type: functional
[12] = Counterscreen for inhibitors of Trypanosoma brucei methionyl tRNA synthetase (MetRS): Luminescence-based cell-based high throughput dose response assay to identify compounds that are cytotoxic to Jurkat human T lymphocyte cells.; type: functional
[13] = molecular target: T3, Methionyl-tRNA synthetase, putative (Trypanosoma brucei brucei, UniProt Q38C91); type: functional, Trypanosoma brucei brucei strain 927/4 GUTat10.1;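 note: Read-out by fluorescence polarization, run as a confirmatory high-throughput counterscreen; potency of MetRS inhibitors measured by reduced AMP formation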
T3 sequence (Q38C91 whole entry): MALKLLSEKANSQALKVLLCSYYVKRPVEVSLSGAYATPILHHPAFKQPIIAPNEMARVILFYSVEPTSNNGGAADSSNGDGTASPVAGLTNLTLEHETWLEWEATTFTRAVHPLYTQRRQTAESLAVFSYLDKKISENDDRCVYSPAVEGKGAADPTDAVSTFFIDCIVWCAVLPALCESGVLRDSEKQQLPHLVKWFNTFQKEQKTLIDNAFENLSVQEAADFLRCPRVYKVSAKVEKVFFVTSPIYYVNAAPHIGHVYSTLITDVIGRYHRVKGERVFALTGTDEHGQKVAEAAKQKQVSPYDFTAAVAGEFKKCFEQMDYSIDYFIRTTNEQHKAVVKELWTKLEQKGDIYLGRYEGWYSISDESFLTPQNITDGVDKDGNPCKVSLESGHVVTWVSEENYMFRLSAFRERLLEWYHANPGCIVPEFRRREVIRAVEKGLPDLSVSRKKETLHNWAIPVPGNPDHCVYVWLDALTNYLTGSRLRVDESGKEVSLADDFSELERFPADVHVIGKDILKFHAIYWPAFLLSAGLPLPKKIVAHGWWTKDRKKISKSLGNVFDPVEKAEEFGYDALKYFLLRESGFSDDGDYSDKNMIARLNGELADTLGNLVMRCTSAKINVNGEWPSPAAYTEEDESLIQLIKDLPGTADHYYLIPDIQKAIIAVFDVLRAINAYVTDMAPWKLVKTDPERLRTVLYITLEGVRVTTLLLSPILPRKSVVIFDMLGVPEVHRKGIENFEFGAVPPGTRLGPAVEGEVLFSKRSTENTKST

INS1 = test: INS-1E survival protection against cytokine death – cell-based, luminescence, retest, dose response (AID 449756); type: functional; settings: Rattus norvegicus;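 note: cell death triggered by IL-1 beta plus TNF-alpha plus IFN-gamma mixture; protective hits raise ATP signal compared with cytokine alone wells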
[14] = molecular target: T4, Corticotropin-releasing factor receptor 2/Corticotropin-releasing factor-binding protein (Homo sapiens, UniProt P24387+Q13324); test: Dose Response confirmation of uHTS hits for small molecule antagonists of the CRF-binding protein and CRF-R2 receptor complex.; type: functional; settings: read-out: IC50_Mean
T4 sequence (Q13324 whole entry): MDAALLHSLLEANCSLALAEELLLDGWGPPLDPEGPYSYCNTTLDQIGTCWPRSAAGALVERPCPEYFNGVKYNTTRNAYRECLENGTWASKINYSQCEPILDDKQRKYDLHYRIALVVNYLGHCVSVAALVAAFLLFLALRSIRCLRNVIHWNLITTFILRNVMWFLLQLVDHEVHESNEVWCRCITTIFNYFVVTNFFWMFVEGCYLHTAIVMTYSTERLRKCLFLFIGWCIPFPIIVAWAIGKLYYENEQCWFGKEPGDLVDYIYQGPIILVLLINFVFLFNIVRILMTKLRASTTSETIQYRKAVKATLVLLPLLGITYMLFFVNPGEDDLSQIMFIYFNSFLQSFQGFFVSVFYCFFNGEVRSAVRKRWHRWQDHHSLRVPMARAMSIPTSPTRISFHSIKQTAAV
T4 sequence (P24387 whole entry): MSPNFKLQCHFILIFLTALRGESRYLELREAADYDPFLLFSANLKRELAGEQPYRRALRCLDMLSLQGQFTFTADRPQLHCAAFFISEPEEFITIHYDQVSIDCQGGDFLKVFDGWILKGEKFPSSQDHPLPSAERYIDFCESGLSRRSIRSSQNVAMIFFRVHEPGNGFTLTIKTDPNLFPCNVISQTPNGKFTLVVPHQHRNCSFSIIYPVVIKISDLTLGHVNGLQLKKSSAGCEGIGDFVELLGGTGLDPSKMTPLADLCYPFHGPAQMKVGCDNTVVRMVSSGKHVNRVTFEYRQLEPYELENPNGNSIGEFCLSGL

[15] = molecular target: T4, Corticotropin-releasing factor receptor 2/Corticotropin-releasing factor-binding protein; test: activators of CRF receptor 2 with binding protein – uHTS hits, confirmation (AID 602473); type: functional; settings: read-out: EC50_Mean
[16] = blockers of CRF-binding protein–CRF-R2 complex – cell-based, uHTS hits, 384-well, dose response (AID 651639); type: functional, Homo sapiens; settings: read-out: IC50_Mean

For Clc1ccc(-c2c[n+](-c3ccc(Cl)cc3)c3n2CCCCC3)cc1, the IC50 (Protein Wnt-3a) was 26.4 µM (inactive).

For O=C(CCN1CCC(c2ccccc2)C1)c1ccc2c(c1)OCCO2 (configuration not stated) [PROROXAN HYDROCHLORIDE], the IC50 (cells [1]) was > 29.9 µM (inactive), the EC50 [2] was 34.3 µM (active) and the EC50 [3] was 0.21 µM (active). The AC50 (HEK293) was 76.8 µM (active), the EC50 (cells [4]) was > 29.9 µM (inactive) and the IC50 [5] was 1.46 µM (active). The EC50 [6] was 36.3 µM (active).

In the case of O=C(Nc1ccc(Cl)cc1)N1CCC(c2ccccc2)C1 (configuration not stated), the IC50 (Beta-galactosidase) is reported as > 80 µM (inactive).

With NCCc1nc(-c2ccccc2)cs1 the IC50 (cells [1]) was > 29.9 µM (inactive), the EC50 [3] was 4.72 µM (active) and the EC50 (cells [4]) was > 29.9 µM (inactive). The IC50 [5] was > 29.9 µM (inactive).

For CC(C)(C)NC(=O)NC(=O)CN1CCN(c2ccc(O)cc2)CC1, the AC50 [7] was 5.88 µM (active), the AC50 [8] was 4.04 µM (active) and the IC50 [9] was 19.1 µM (not active). For the same compound, the IC50 (Large T antigen) was 21.2 µM (active), the AC50 [10] was 1.9 µM (active) and the AC50 [11] was 67.2 µM (active).

For S=C1SCN(CCc2ccccc2)CN1CCc1ccccc1, the IC50 (cells [1]) was > 29.9 µM (inactive), the EC50 [3] was 2.11 µM (active) and the EC50 (cells [4]) was > 29.9 µM (inactive). The IC50 [5] was 3.35 µM (active).

For O=C(Nc1ccccc1)Nc1ccc(S(=O)(=O)N2CCCCC2)cc1, the IC50 [12] was 47.5 µM (inactive) and the IC50 [13] was 26.9 µM (inactive).

For CCOc1ccc(OCc2ccc(C(=O)NN=Cc3ccc[nH]3)cc2)cc1, the IC50 (Protein Wnt-3a) was 5.48 µM (active) and the AC50 (INS1) was 0.372 µM (active).

In the case of OC[C@@H]1CN(Cc2cccc(C(F)(F)F)c2)C[C@H](n2cnc3c(NC4CC4)ncnc32)O1, the IC50 (Beta-galactosidase) is reported as > 80 µM (inactive).

For CCCCCn1c(=N)n(CC(O)COc2ccccc2OC)c2ccccc21 (configuration not stated), the IC50 (Protein Wnt-3a) was 8.95 µM (active).

For Cc1ccc(Cl)cc1N1CCN(C(=O)Cc2c(C(=O)O)[nH]c3ccccc23)CC1, the IC50 [14] was 33.5 µM (active), the EC50 [15] was > 53 µM (inactive) and the IC50 [16] was > 20 µM (inactive).
